Laboratory results from patent publication EP0132130A2, “Aroyl benzofuran and benzothiophene acetic and propionic acids processes for their production and pharmaceutical compositions containing them” (SYNTEX (U.S.A.) INC., priority 1983, dated 1985).

Legend:
[1] = system: phenylquinone induced writhing; experiment: Screening test for analgetic activity: mouse analgetic (anti-writhing) assay (method of Hendershot & Forsaith); assay type: in vivo; conditions: activity relative to aspirin = 1; oral by gavage, male Swiss-Webster mice, phenylquinone IP twenty minutes later
Method: Small animal screening tests to determine analgetic activity potential include the mouse analgetic (anti-writhing) assay according to the method of Hendershot and Forsaith, J. Pharmacol. Exp. Ther., 125:237-240, (1959).
The oral analgetic activity potential is determined utilizing the mouse analgetic (anti-writhing) assay in accordance with the method of Hendershot & Forsaith, J.Pharmacol.Exp.Ther., 125:237-240, (1959).
The test material is administered orally by gavage in an aqueous vehicle at time 0 to 18-20 gram male Swiss-Webster mice. Twenty minutes later 0.5 ml of a 0.02% solution of phenylquinone is injected IP. This solution induces writhing.
The total number of mice that writhe and the average number of writhes per mouse indicates the activity of the compound tested; the fewer writhes per mouse indicates a greater activity. Compounds of this invention show analgetic activity in this assay as illustrated in Table 2 below.

[2] = system: carrageenin induced paw inflammation; experiment: Screening test for anti-inflammatory activity: carrageenin induced paw inflammation in the rat (method of Winter et al.); assay type: in vivo; conditions: activity relative to phenylbutazone = 1; oral by gavage at hour 0, female rats, carrageenin at hour 1, paws weighed at hour 4
Method: Initial small animal screening tests to determine anti-inflammatory activity potential include the carrageenin induced paw inflammation in the rat according to the method of Winter, et al., Proc. Soc. Exp. Biol. Med., 111:544-547, (1962) and the cotton pellet granuloma test in the rat according to the method of Meier, et al Experientia 6:469-471, (1950) and modifications thereof. The oral anti-inflammatory activity is determined utilizing carrageenin induced paw inflammation in the rat in accordance with the method of Winter, et al., Pro.Soc.Exp.Biol.Med., III:544-547, (1962). Female rats weighing 80-90 grams are used. The test materials are given at hour 0 orally by gavage in 1 ml of aqueous vehicle. At hour 1, 0.05 ml of a 1% solution (in 0.9% NaCl) of carrageenin is injected into the right hind paw. This injection causes inflammation of the paw. The rats are sacrificed at hour 4, at which time both hind paws are removed and weighed separately. The percent increase in paw size is calculated as follows: • Wt. of right paw - Wt of left ^paw X 100 […] The smaller the percent increase in paw size, the lesser the degree of inflammation and the greater the anti-inflammatory activity. Compounds of this invention show anti-inflammatory activity in this test as illustrated in Table 1 below.

Compound | Analgesic Activity (Aspirin = 1) [1] | (Phenylbutazone = 1) Antiinflammatory Activity [2]
O=C(O)Cc1cc(C(=O)c2ccc(Cl)cc2)c2occc2c1 [7-(4-chlorobenzoyl)benzofuran-5-ylacetic acid] | 32 | 0.5
CSc1ccc(C(=O)c2cc(C(C)C(=O)O)cc3ccoc23)cc1 (racemic) [d,l 2-(7-(4-methylthiobenzoyl)benzofuran-5-yl)-propionic acid] | 25 | 15
O=C(O)Cc1cc(C(=O)c2ccccc2)c2occc2c1 [Ar=phenyl, R1=H, X1=O, X2=O, R2=H, R3=H, 7-benzoylbenzofuran-5-ylacetic acid] | 25 | 1
O=C(O)Cc1cc(C(=O)c2ccc(Cl)cc2)c2sccc2c1 [7-(4-chlorobenzoyl)benzothiophen-5-ylacetic acid] | 7 | 1.5
CSc1ccc(C(=O)c2cc(CC(=O)O)cc3ccoc23)cc1 [7-(4-methylthiobenzoyl)benzofuran-5-ylacetic acid] | 95 | 1.5
CC(C(=O)O)c1cc(C(=O)c2ccccc2)c2occc2c1 (racemic) [d,l 2-(7-benzoylbenzofuran-5-yl)propionic acid] | 50 | 2
CC(C(=O)O)c1cc(C(=O)c2ccc(Cl)cc2)c2occc2c1 (racemic) [d.1-2-(7-(4-chlorobenzoyl)benzofuran-5-yl)-propionic acid] | 35 | 4
